Assay results reported in publication PMC5699943 (Biotechnology and bioengineering, 2017).

What was measured:
Test in all cases: formaldehyde-responsive FrmR GFP reporter in E. coli cells
Assay type in all cases: cell-based
Conditions in all cases: whole cells, 0-500 mM methanol, 2 h, 37°C, NAD-dependent
[1] = molecular target: T1, mdh from Geobacillus stearothermophilus (Geobacillus stearothermophilus, UniProt P42327)
T1 sequence (P42327 1-339): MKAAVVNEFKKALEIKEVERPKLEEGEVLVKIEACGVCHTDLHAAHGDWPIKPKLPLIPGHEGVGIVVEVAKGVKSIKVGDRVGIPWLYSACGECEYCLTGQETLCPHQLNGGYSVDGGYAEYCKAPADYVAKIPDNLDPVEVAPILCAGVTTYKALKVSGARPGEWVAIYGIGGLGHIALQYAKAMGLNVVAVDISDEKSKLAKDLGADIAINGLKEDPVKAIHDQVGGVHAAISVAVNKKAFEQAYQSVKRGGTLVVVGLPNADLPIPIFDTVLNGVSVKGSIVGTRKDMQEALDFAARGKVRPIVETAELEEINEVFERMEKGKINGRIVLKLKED

[2] = molecular target: T2, mdh2 from Cupriavidus necator (Cupriavidus necator, UniProt F8GNE5)
T2 sequence (F8GNE5 1-390): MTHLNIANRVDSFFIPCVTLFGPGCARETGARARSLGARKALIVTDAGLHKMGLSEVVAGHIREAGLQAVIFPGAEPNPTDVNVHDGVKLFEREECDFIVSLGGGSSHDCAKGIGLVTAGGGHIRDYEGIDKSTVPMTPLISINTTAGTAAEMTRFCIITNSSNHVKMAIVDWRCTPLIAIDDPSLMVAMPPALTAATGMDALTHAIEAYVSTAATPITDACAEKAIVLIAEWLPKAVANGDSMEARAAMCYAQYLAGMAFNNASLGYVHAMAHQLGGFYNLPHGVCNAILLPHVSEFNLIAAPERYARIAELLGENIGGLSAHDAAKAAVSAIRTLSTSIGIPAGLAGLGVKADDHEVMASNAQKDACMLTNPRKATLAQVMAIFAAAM

AdhA from C. glutamicum = molecular target: T3, AdhA from C. glutamicum (Corynebacterium glutamicum, UniProt Q8NLX9)
T3 sequence (Q8NLX9 1-345): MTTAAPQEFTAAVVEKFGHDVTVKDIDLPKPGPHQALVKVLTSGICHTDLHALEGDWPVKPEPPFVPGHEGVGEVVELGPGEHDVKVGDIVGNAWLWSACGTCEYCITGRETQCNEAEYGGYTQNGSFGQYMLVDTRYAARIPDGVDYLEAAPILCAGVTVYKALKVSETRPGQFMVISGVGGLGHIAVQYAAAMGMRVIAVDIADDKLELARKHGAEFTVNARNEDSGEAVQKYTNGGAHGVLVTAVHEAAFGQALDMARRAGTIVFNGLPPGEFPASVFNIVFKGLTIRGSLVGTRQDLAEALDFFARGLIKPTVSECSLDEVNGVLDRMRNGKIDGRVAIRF

CO [methanol]
formaldehyde-responsive FrmR GFP reporter in E. coli cells [1]: After two hours, signal was detected for all variants except Mdh1
formaldehyde-responsive FrmR GFP reporter in E. coli cells [2]: After two hours, signal was detected for all variants except Mdh1
formaldehyde-responsive FrmR GFP reporter in E. coli cells (AdhA from C. glutamicum): After two hours, signal was detected for all variants except Mdh1
